Test results from ChEMBL document CHEMBL1201862, “PubChem BioAssay data set” (2004).
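The compound was tested at five concentrations on cells cultured in 96-well plates, with a 48-hour exposure period. The concentration for 50% growth inhibition is given as GI50.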 Calls of active or inactive are those of the source. Rule as the data show it: active = GI50 up to about 1.1 µM and inactive = higher.

Columns and labels:
Test in all cases: NCI-60 cell line screen, 48 h
RPMI-8226 = system: RPMI-8226
SK-MEL-5 = system: SK-MEL-5
RXF 393 = system: RXF 393
HCT-15 = system: HCT-15
ACHN = system: ACHN
NCI-H522 = system: NCI-H522
BT-549 = system: BT-549
NCI-H460 = system: NCI-H460
MOLT-4 = system: MOLT-4
PC-3 = system: PC-3
EKVX = system: EKVX
HCC 2998 = system: HCC 2998
SW-620 = system: SW-620
Malme-3M = system: Malme-3M
A498 = system: A498
HL-60 = system: HL-60
SF-268 = system: SF-268
HT-29 = system: HT-29
MCF7 = system: MCF7
UO-31 = system: UO-31

SMILES | GI50 (RPMI-8226) | GI50 (SK-MEL-5) | GI50 (RXF 393) | GI50 (HCT-15) [µM] | GI50 (ACHN) | GI50 (NCI-H522) | GI50 (BT-549) | GI50 (NCI-H460) | GI50 (MOLT-4) | GI50 (PC-3) | GI50 (EKVX) | GI50 (HCC 2998) | GI50 (SW-620) | GI50 (Malme-3M) | GI50 (A498) | GI50 (HL-60) | GI50 (SF-268) | GI50 (HT-29) | GI50 (MCF7) | GI50 (UO-31)
c1ccc2c(c1)c1c3n2-c2cc(on2)C3CCC1 (stereo not given) | > 100 µM (inactive) | > 100 µM (inactive) | > 100 µM (inactive) | > 100 | > 100 µM (inactive) | > 100 µM (inactive) | > 100 µM (inactive) | > 100 µM (inactive) | 70.1 µM (inactive) | > 100 µM (inactive) | > 100 µM (inactive) | > 100 µM (inactive) | > 100 µM (inactive) | > 100 µM (inactive) | > 100 µM (inactive) | > 100 µM (inactive) | > 100 µM (inactive) | > 100 µM (inactive) | > 100 µM (inactive) | > 100 µM (inactive)
CC(C)(C)c1cc(C(C)(C)C)c(SC2OC(CO)C(O)C(O)C2O)c(O)c1O (stereo not given) | 15.1 µM (inactive) | 5.57 µM (inactive) | 0.36 µM (active) | 4.54 | 6.53 µM (inactive) | 7.21 µM (inactive) | 10.6 µM (inactive) | 3.24 µM (inactive) | 9.1 µM (inactive) | 9.18 µM (inactive) | 10.8 µM (inactive) | 6.22 µM (inactive) | 19.3 µM (inactive) | 12.6 µM (inactive) | 14.7 µM (inactive) | 3.27 µM (inactive) | 6.97 µM (inactive) | 7.1 µM (inactive) | 5.4 µM (inactive) | 11.4 µM (inactive)
Cc1nc2c(Cl)cc(Cl)cc2c(Cl)c1CCCl | 57.5 µM (inactive) | 45.8 µM (inactive) | 22.8 µM (inactive) | 60.5 | > 100 µM (inactive) | 87.1 µM (inactive) | 51.1 µM (inactive) | > 100 µM (inactive) | 55 µM (inactive) | 60.5 µM (inactive) | 78.2 µM (inactive) | > 100 µM (inactive) | > 100 µM (inactive) | > 100 µM (inactive) | 72.4 µM (inactive) | 55.2 µM (inactive) | 75.2 µM (inactive) | 78.7 µM (inactive) | > 100 µM (inactive) | 30.1 µM (inactive)
COc1cccc2c1C(CO)N1C(C#N)C3CC(C(=O)O)C(C1C2)N3C (stereo not given) | 1.15 µM (inactive) | 1.69 µM (inactive) | 1.27 µM (inactive) | 1.43 | 3.36 µM (inactive) | 0.0615 µM (active) | 0.213 µM (active) | 5.19 µM (inactive) | 1.48 µM (inactive) | 0.331 µM (active) | 6.19 µM (inactive) | 0.405 µM (active) | 2.71 µM (inactive) | 1.92 µM (inactive) | 2.77 µM (inactive) | 1.52 µM (inactive) | 1.85 µM (inactive) | 1.64 µM (inactive) | 0.272 µM (active) | 1.59 µM (inactive)
O=C(/N=C1/NCC(CN2CCN(c3ccccc3)CC2)O1)Nc1ccccc1 (stereo not given) | > 100 µM (inactive) | > 100 µM (inactive) | > 100 µM (inactive) | > 100 | > 100 µM (inactive) | > 100 µM (inactive) | > 100 µM (inactive) | > 100 µM (inactive) | 93.1 µM (inactive) | > 100 µM (inactive) | > 100 µM (inactive) | > 100 µM (inactive) | > 100 µM (inactive) | > 100 µM (inactive) | > 100 µM (inactive) | > 100 µM (inactive) | > 100 µM (inactive) | 63.8 µM (inactive) | > 100 µM (inactive) | > 100 µM (inactive)
CC(=O)Oc1ccc2ccc(=O)oc2c1OC(C)=O | 28.4 µM (inactive) | 27.2 µM (inactive) | 22.7 µM (inactive) | 11.6 | 45.4 µM (inactive) | 39.5 µM (inactive) | 40 µM (inactive) | 14.9 µM (inactive) | 33.3 µM (inactive) | 43 µM (inactive) | 67.8 µM (inactive) | 48 µM (inactive) | 37.1 µM (inactive) | > 100 µM (inactive) | > 100 µM (inactive) | 17.1 µM (inactive) | 27.8 µM (inactive) | > 100 µM (inactive) | 46.3 µM (inactive) | 30.1 µM (inactive)
C(=C\c1cccc(/C=C/c2ccccn2)n1)/c1ccccn1 | 43.6 µM (inactive) | 48.4 µM (inactive) | 62.1 µM (inactive) | > 100 | 35.2 µM (inactive) | 13.4 µM (inactive) | 18.7 µM (inactive) | > 100 µM (inactive) | 31.5 µM (inactive) | 58.9 µM (inactive) | > 100 µM (inactive) | 79.6 µM (inactive) | 59.4 µM (inactive) | 17.3 µM (inactive) | 0.971 µM (active) | 72.4 µM (inactive) | 20.2 µM (inactive) | 56.8 µM (inactive) | 26.6 µM (inactive) | 26.2 µM (inactive)
COC(=O)c1c(C)cccc1/C=C1\Cc2ccc(C)c(C)c2C1=O | 56.2 µM (inactive) | > 100 µM (inactive) | 86.5 µM (inactive) | > 100 | > 100 µM (inactive) | 78.9 µM (inactive) | > 100 µM (inactive) | > 100 µM (inactive) | 93.8 µM (inactive) | > 100 µM (inactive) | > 100 µM (inactive) | > 100 µM (inactive) | > 100 µM (inactive) | > 100 µM (inactive) | 31 µM (inactive) | > 100 µM (inactive) | 67.5 µM (inactive) | > 100 µM (inactive) | > 100 µM (inactive) | 28.8 µM (inactive)
